Results published in a melting point compilation (Tetko et al.; mined from patent text by program, amines drawn as free bases though some values may be those of a salt).

With `Cc1cn(C(C)C(=O)Nc2ccccc2)nc1-c1ccccc1` (centres undefined) the melting point was 79 to 82 °C. For `Cc1nc2c(c(Cl)c1C(=O)NC(=N)N)CCCCC2`, the melting point was 210 to 212 °C. Compound `CCCCn1c(SC(CC)C(N)=O)nc2c1c(=O)[nH]c(=O)n2C` (centres undefined) has a melting point of 253 °C. For `Cc1oc(-c2ccccc2)nc1CCCc1ccc(CC(C(=O)O)c2cccc(-c3ccccc3)c2)cc1` (centres undefined), the melting point was 75 to 80 °C. `O=C(c1cc2c([nH]c3ccccc32)s1)N1CCOCC1` showed a melting point of 92 to 95 °C. With `O=C(NC(=O)c1c(F)cccc1F)Nc1cc(C(F)(F)F)c(Cl)cc1Br` the melting point was 196 °C. With `CC(C)(C)OC(=O)c1ncn2c1COc1ccccc1-2` the melting point was 119 to 123 °C. Compound `COC(=O)C=Cc1c(O)cccc1C#CCCCCOC1CCCCO1` (racemic) has a melting point of 66 to 67.5 °C. `CC1(C)OCc2cc(Cl)cc(C(=O)c3cn(C(c4ccccc4)(c4ccccc4)c4ccccc4)cn3)c2O1` showed a melting point of 200 to 205 °C. Compound `NC(=O)c1sc2cncc(Oc3ccc(Cl)cc3)c2c1N` has a melting point of 202 to 204 °C. `Cc1c(Cl)nc2c(C=O)cnn2c1Cl` showed a melting point of 137 to 139 °C. For `Fc1ccc(-c2ccn(CC3CCNCC3)c2-c2ccncc2)cc1`, the melting point was 174 to 176 °C. Compound `C=CCN(c1ccccc1)c1ncc(C(C)C(=O)O)s1` (centres undefined) has a melting point of 134 to 135 °C. `CCN(CC)c1ccc2nc3c4ccc(Br)cc4c(=Nc4ccncc4)cc-3oc2c1` showed a melting point of 269 to 271 °C. Work on `COc1ccc2c(c1)OC(c1ccc(Cl)cc1)CC2=O` (centres undefined) yielded a melting point of 97 to 99 °C. For `Cc1c(CC[Si](Cl)(Cl)Cl)c(CC[Si](Cl)(Cl)Cl)c(C)c(CC[Si](Cl)(Cl)Cl)c1CC[Si](Cl)(Cl)Cl`, the melting point was 220 to 224 °C. `Cc1cccc(COc2cccc(OCc3ccc4cc(F)ccc4n3)c2)c1OCC(=O)O` showed a melting point of 160 to 161 °C. `CC(=O)Nc1c(C(=O)c2cc(C)ccn2)[nH]c2cc(Cl)ccc12` showed a melting point of 187 to 188 °C. `CCOc1nccc(-c2c(-c3ccc(F)cc3)ncn2[C@H]2CC[C@H](O)CC2)n1` showed a melting point of 184 to 186 °C. Work on `O=C(O)CCS(=O)(=O)NCCOCCc1ccccc1` yielded a melting point of 80 to 82 °C. `Cc1cc2c(c(C(=O)c3ccccc3)c1)NCC2` gave a melting point of 84 °C. In the case of `O=C(CC(F)(F)F)N[C@H]1CC[C@H](CCN2CCC(c3cccc4c3CCO4)CC2)CC1`, the melting point is reported as 197 °C. In the case of `CCCc1ccc(S(=O)(=O)NCc2ccccn2)cc1`, the melting point is reported as 109 °C. `COc1ccccc1-c1noc2ccc([N+](=O)[O-])cc12` showed a melting point of 170 to 171 °C. Work on `Cc1c(C(=O)N[C@@H]2CN3CCC2CC3)c2ccccc2n1C` yielded a melting point of 176 to 177 °C. In the case of `CC[C@@H]1c2onc(-c3ccc(Cl)cc3)c2CC[C@H]1C(=O)O` (relative stereo), the melting point is reported as 162 to 163 °C. `O=S(=O)(c1ccc(I)cc1)N1CCOCC1` gave a melting point of 141 to 144 °C. With `COc1ccc(-c2csc(Nc3ccc4ccccc4c3)n2)cc1OC` the melting point was 221 to 224 °C. `COc1cc(CN2CCc3c(sc(N)c3C(=O)c3ccc4ccccc4c3)C2)cc(OC)c1OC` showed a melting point of 127 to 129 °C. With `O=c1[nH]c2cc(F)c(F)cc2n2ccnc12` the melting point was > 300 °C. `CC(C)(C)OC(=O)N[C@H](Cc1ccccc1)C(=O)N1CCC[C@H]1C(=O)NC(Cc1ccc(C#N)cc1)P(=O)(Oc1ccccc1)Oc1ccccc1` (some centres undefined) showed a melting point of 85 to 90 °C. Work on `CCN(C(=O)CCCCc1nnnn1C1CCCCC1)C1CCCCC1` yielded a melting point of 92 to 95 °C. `CC#CCOc1cc(Oc2ccc([N+](=O)[O-])cc2F)ncn1` showed a melting point of 132 °C. For `CCOC(=O)c1cnc(N2CCN(S(=O)(=O)c3ccc4ccccc4c3)CC2)nc1`, the melting point was > 260 °C. With `CCCCCCC(=O)NCC(=O)O` the melting point was 98 to 100 °C. For `CCCOC1CCCC(C2NC(=O)C2C(C)O[Si](C)(C)C(C)(C)C)C1O` (centres undefined), the melting point was 119 to 121 °C. `[O-][N+]#Cc1c(Cl)ccc2cc(Cl)cnc12` showed a melting point of 185 °C. With `COc1ccc(-c2nc(SC(F)(F)C(F)F)[nH]c2-c2ccncc2)cc1` the melting point was 212 to 214 °C. For `COc1ccc2c(=O)c(-c3nnnn3C)cn(C)c2c1`, the melting point was 270 to 273 °C. `Cc1ccc(C=C2C(=O)N(c3cc(F)ccc3F)C(=O)N2C)cc1` showed a melting point of 136 to 140 °C. For `CC1(C)OCC(NC(=O)c2ccc([N+](=O)[O-])cc2)CO1`, the melting point was 211 °C. `CC(=CC(=O)c1ccc(C(=O)N2Cc3cccn3Cc3ccccc32)cc1)N(C)C` gave a melting point of 183 to 185 °C. In the case of `CCOC(=O)C(=O)C(C#N)c1cccc(Oc2ccccc2)c1` (centres undefined), the melting point is reported as 105 to 109 °C. Work on `CC(C)(C)C(=O)OCOC(=O)c1[nH]c2ccccc2c1Nc1ccncc1` yielded a melting point of 223 to 224 °C. In the case of `N#Cc1cc(-c2nc3cncnc3s2)ccc1Oc1ccccc1F`, the melting point is reported as 195 to 196 °C. In the case of `O=C(NC1CCOc2cc(C(=O)Nc3ccncc3)ccc21)OCc1ccccc1` (centres undefined), the melting point is reported as 226 to 228 °C. For `CCOc1ccc(-c2c(Cl)c(CN3C(=O)CCC3=O)nc3sc4c(c23)CCNC4)cc1`, the melting point was 215 to 217 °C. `CCCC(=O)c1ccc(NC(C)=O)cc1` showed a melting point of 141 to 143 °C. In the case of `Nc1ccc(Br)c2ccn3c(=O)c(C(=O)O)cnc3c12`, the melting point is reported as 283 to 284 °C. For `CCOC(c1ccccc1)(c1ccccc1)C(C)CNC` (centres undefined), the melting point was 85 °C. Work on `c1ccc2c(Sc3cccc4ccccc34)cccc2c1` yielded a melting point of 108 to 110 °C. With `N#Cc1ccc(S(=O)(=O)N2CCN(c3ccncc3)CC2)cc1` the melting point was 212 to 213 °C. With `CC(=O)NCCn1ccc2ncnc(Nc3ccc(Oc4cccc5sncc45)c(Cl)c3)c21` the melting point was 222 to 224 °C. For `C#CCN1CCN(C(C)=O)CC1`, the melting point was 63 to 65 °C. `CC(=O)OCC1OC(n2cc(C)c(=O)[nH]c2=O)CC1F` (centres undefined) gave a melting point of 97 to 98 °C. Compound `CC(C)(C)c1cc(CNC2CCCCC2)c(O)c(C(C)(C)C)c1` has a melting point of 67 to 70 °C. For `Cc1c[nH]c2c(=O)n(CC(=O)NC3CC(=O)OC3OCc3ccccc3)cnc12` (centres undefined), the melting point was 240 to 244 °C. Work on `Cc1nc(N2CCCN(CC3CC3)C2=O)sc1C(=O)NCc1cccnc1` yielded a melting point of 142 to 145 °C. For `CCOC(=O)CCc1c(-c2ccccc2)c2cc(C)c(C)cc2c(=O)n1C`, the melting point was 138 to 139 °C. `Cc1cc([N+](=O)[O-])ccc1NCCCn1ccnc1` showed a melting point of 163 °C. Work on `Cc1nc2c(O[C@@H]3c4ccccc4C[C@H]3O)cc(Cl)cn2c1N` (relative stereo) yielded a melting point of 223 to 225 °C. `O=C(O)CCCCCCC1C(=O)NC(=O)N1CCCCCc1ccccc1` (centres undefined) gave a melting point of 90 to 92 °C. `CCOC(=O)c1cn(C)nc1OCc1ccccc1` showed a melting point of 66 to 67 °C. In the case of `CC#CCNC(=NC#N)SC`, the melting point is reported as 180 to 183 °C. Compound `Nc1sc2c(c1C(=O)c1ccc(Cl)s1)CCCC2` has a melting point of 173 to 175 °C. Compound `CSc1nc(C)n(CC(=O)O)c(=O)c1C#N` has a melting point of 236 to 238 °C. `C[Si](C)(C)C#Cc1cc(F)cnc1N` showed a melting point of 65 °C. `Cc1ccc(-c2n[nH]c(N)c2C#N)cc1` gave a melting point of 173 to 178 °C. Compound `COc1ccccc1C1CCC(=O)C=C1C(=O)O` (racemic) has a melting point of 177 °C. In the case of `O=C1NC(=O)C(Cc2ccc(OCc3nc(-c4ccccc4)cs3)cc2)S1` (centres undefined), the melting point is reported as 164 to 165 °C. `CC(=O)OC1CCCc2cnc3ccccc3c21` (centres undefined) showed a melting point of 128 to 129 °C. `Cc1ccnc(C(=O)c2[nH]c3cc(Cl)ccc3c2N)c1` gave a melting point of 195 to 196 °C. With `CCCc1ccnc2c(=O)[nH]c(-c3cc(S(=O)(=O)N4CCNCC4)ccc3OCC)nc12` the melting point was 178 to 180 °C. `O=c1oc2c(c(O)c1C(c1ccccc1)C1CC1)CCCCCCC2` (centres undefined) showed a melting point of 81.7 to 84 °C.
